According to patent US12281143B1, “Insect neuropeptides 1” (Solasta Bio Limited, priority 2023, dated 2025):
Read-outs that look alike come from different tables or passages of the source. Where a SMILES comes first, the peptide text is derived from it.

How the values were obtained:
Bumblebee = experiment: Bee oral toxicity test adapted from OECD Test No. 247 (Bumblebee, Acute Oral Toxicity Test); type: in vivo; conditions: after 96 hours of application, compared to Imidacloprid (FIG. 10)
Procedure: Bee oral testing protocol was carried out adapted from OECD Test No. 247: Bumblebee, Acute Oral Toxicity Test. The toxicity of SB—P-46 was compared with a negative control of sucrose or vehicle, and with a current commercial insecticide Imidacloprid.

[1] = system: Amrasca biguttula (leaf hopper); conditions: unformulated; 3 and 7 days after application (FIG. 16)
Excerpt: (§1) The data has been processed in the ARM Field Trials software under license.

Aphis fabae = conditions: unformulated; for reduction in Aphis fabae numbers as a percentage of untreated control crop: vining peas
Excerpt: as §1

Aphis gossypii = conditions: Greece; cotton; unformulated; counted 3 days following application (FIG. 14)
Excerpt: as §1
AgriScience conducted a field trial in Greece, investigating the efficacy of insecticidal peptides on aphids on cotton crop.

Myzus persicae = conditions: unformulated peptide; leaf dip; mortality assessed at 72, 96 and 120 hours; compared to vehicle and Spirotetramat (FIGS. 6 and 7)
Procedure: Dip a 2.5 cm leaf disc into 3 ml of treatment solution allowing the treatment to coat the leaf. Leave the disc to dry for 1 hour and place onto the set agar. Place insects (aphids) onto each of the leaf discs. Each unit is sealed with a close-fitting, ventilated lid. Place the agar dishes in a small plastic tray lined with moist tissue paper and ensure the water trays in the bottom of the incubator are filled with clean water and place within the incubator. An assessment of mortality is made at 72, 96 and 120 hours. Leaf dip assays were performed with unformulated SB—P-46, and compared to a negative control vehicle and a current commercial insecticide Spirotetramat.

For `CC(C)C[C@H](NC(=O)[C@H](CCCNC(=N)N)NC(=O)[C@@H]1CCCN1C(=O)[C@H](CO)NC(=O)[C@H](Cc1ccccc1)NC(=O)[C@@H]1CCCN1C(=O)[C@@H]1CCCN1C(=O)[C@H](CO)NC(=O)[C@H](Cc1ccc(O)cc1)NC(=O)[C@@H]1CCCN1C(=O)[C@@H]1CCCN1C(=O)[C@@H](N)CO)C(N)=O` [SB—P-46, [Hy]-SPPYSPPFSPRL-[NH2]] (H-SPPYSPPFSPRL-NH2), the “toxicity to bees (% survival)” value (Bumblebee) was “far lower toxicity”, the “activity against naturally infested Amrasca biguttula (leaf hopper)” value [1] was “acted comparably to Flipper insecticide” and the “reduction in Aphis fabae numbers as a percentage of untreated control crop” value (Aphis fabae; Field trial 1, Chatteris location, counted 14 days following application (FIG. 11)) was “performed comparably to the conventional insecticides Stealth and Teppeki”. The “reduction in Aphis fabae numbers as a percentage of untreated control crop” value (Aphis fabae; Wigtoft location, counted 4 days following application (FIG. 12)) was “similarly efficacious activity”, the “activity against naturally infested Aphis fabae” value (Aphis fabae; further field trials, 4 and 8 days after application (FIG. 15)) was “acted comparably to Hallmark Zeon insecticide” and the “reduction in Aphis fabae numbers as a percentage of untreated control crop” value (Aphis fabae; third PGRO trial (slot trial), Holbeach location, counted 7 days following application, low aphid infestation (FIG. 13)) was “performed as efficaciously as the conventional pesticides tested”. For the same molecule, the “reduction in Aphis gossypii numbers as a percentage of untreated control crop” value (Aphis gossypii) was “close efficacy to the conventional pesticide equivalent tested” and the “activity against Myzus persicae (mortality)” value (Myzus persicae) was “good activity”.
